Test results from patent US5641792A, “Benzoylguanidines substituted by heterocyclic N-oxide, process for their preparation and pharmaceutical compositions containing them” (priority 1994, dated 1997).
Counter-ions that a name gives are not always drawn. Blank lines part the entries; values can stand above or below the compound they belong to.

Assays:
[1] = biological target: T1, Na^+ /H^+ exchanger of rabbit erythrocytes (Oryctolagus cuniculus, UniProt P23791); assay: Inhibition of the Na^+ /H^+ Exchanger of Rabbit Erythrocytes (amiloride-sensitive Na^+ influx, flame photometry); type: cell-based, rabbit (White New Zealand); conditions: cholesterol-fed rabbits, pH 7.4, 37° C.
T1 construct: determine the Na^+ influx into the erythrocytes via Na^+ /H^+ exchange by flame photometry; endogenous in cells; host or cells: erythrocytes in blood from the ear arteries of cholesterol-fed White New Zealand rabbits (Ivanovas)
Source text: Inhibition of the Na^+ /H^+ Exchanger of Rabbit Erythrocytes
White New Zealand rabbits (Ivanovas) were given a standard diet with 2% of cholesterol for six weeks in order to activate the Na^+ /H^+ exchange and in this way to be able to determine the Na^+ influx into the erythrocytes via Na^+ /H^+ exchange by flame photometry. The blood was removed from the ear arteries and rendered noncoagulable by 25 IU of potassium-heparin. A portion of each sample was used for duplicate determination of the hematocrit by centrifugation. Aliquots of in each case 100 μl were used for measurement of the starting Na^+ content of the erythrocytes.
To determine the amiloride-sensitive sodium influx, 100 μl of each blood sample were incubated in 5 ml portions each of a hyperosmolar salt/sucrose medium (mmol/l: 140 NaCl, 3 KCl, 150 sucrose, 0.1 ouabain, 20 tris-hydroxymethylaminomethane) at pH 7.4 and 37° C. The erythrocytes were then washed three times with ice-cold MgCl2 /ouabain solution (mmol/l: 112 MgCl2, 0.1 ouabain) and hemolyzed in 2.0 ml of distilled water. The intracellular sodium content was determined by flame photometry.
The Na^+ net influx was calculated from the difference between the starting sodium values and the sodium content of the erythrocytes after incubation. The sodium influx which can be inhibited by amiloride resulted from the difference between the sodium content of the erythrocytes after incubation with and without 3×10^-4 mol/l of amiloride. This procedure was also followed with compounds according to the invention.

rat hearts = conditions: isolated rat hearts, cited from earlier work
[2] = cited from earlier work

T1 sequence (P23791 whole entry): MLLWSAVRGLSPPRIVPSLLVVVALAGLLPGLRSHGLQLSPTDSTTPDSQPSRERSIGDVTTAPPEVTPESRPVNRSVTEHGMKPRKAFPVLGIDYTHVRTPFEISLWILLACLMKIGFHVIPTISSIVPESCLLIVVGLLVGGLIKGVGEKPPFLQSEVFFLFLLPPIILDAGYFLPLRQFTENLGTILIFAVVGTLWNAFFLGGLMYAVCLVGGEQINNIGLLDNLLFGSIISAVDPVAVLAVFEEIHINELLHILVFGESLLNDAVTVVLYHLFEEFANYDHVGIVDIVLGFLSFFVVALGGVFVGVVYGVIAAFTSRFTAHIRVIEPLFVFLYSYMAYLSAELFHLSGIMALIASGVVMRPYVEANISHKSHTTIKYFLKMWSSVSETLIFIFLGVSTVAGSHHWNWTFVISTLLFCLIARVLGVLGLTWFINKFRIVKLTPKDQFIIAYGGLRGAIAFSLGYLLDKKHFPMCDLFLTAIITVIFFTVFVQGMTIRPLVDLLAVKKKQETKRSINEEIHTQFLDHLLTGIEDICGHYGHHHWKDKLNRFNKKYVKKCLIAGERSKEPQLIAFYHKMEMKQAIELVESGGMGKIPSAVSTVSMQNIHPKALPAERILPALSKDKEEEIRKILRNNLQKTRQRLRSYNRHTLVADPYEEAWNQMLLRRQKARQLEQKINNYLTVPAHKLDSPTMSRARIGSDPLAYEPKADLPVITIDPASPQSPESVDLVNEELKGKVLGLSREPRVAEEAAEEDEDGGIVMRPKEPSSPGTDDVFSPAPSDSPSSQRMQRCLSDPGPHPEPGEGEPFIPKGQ

Compound: Cc1ccc2cc(Oc3ccc(C(=O)N=C(N)N)cc3C(F)(F)F)ccc2[n+]1[O-] [Example 3, 4-(quinaldine N-oxide-6-yloxy)-3-trifluoromethyl-benzoylguanidine, hydrochloride]
IC50 [1]: 0.019 µM

Compound: NC(N)=NC(=O)c1nc(Cl)c(N)nc1N [amiloride, Amiloride]
suppression of artificially induced ventricular fibrillation (rat hearts; Eur. Heart J. 9 (suppl. 1): 167 (1988)): suppressed completely
antiarrhythmic effect ([2]; Circulation 79, 1257-63 (1989)): only weak
accompanying action (side-effects) ([2]; accompanies the antiarrhythmic effect): antihypertensive and saluretic action

Compound: CCN(c1nc(N)c(C(=O)NC(=N)N)nc1Cl)C(C)C [ethylisopropylamiloride]
potency relative to amiloride in this model (ventricular fibrillation) (rat hearts; compared with amiloride): even more potent than amiloride

Second part, the compound after the results:

IC50 [1]: 0.08 µM
Compound: NC(N)=NC(=O)c1ccc(Oc2ccc[n+]([O-])c2)c(C(F)(F)F)c1 [Example 1, 4-(pyridine N-oxide-3-yloxy)-3-trifluoromethyl-benzoylguanidine, hydrochloride]

IC50 [1]: 0.3 µM
Compound: Cc1ccc2cc(Oc3ccc(C(=O)N=C(N)N)cc3S(C)(=O)=O)ccc2[n+]1[O-] [Example 2, 4-(quinaldine N-oxide-6-yloxy)-3-methylsulfonyl-benzoylguanidine, hydrochloride]
